Tests used:
[1] = test system: VSV; format: cell-based, vesicular stomatitis virus (VSV)
[2] = cited from earlier work
[3] = test system: H1N1; assay: Time-of-drug-addition assay, H1N1 in A549 cells; format: cell-based, influenza virus A (H1N1); conditions: pre-treatment, co-treatment and post-treatment
[4] = test system: A549 cells; format: cell-based
[5] = target: T1, NPC1 (Homo sapiens, UniProt O15118); format: binding; conditions: read-out: SPR KD
T1 sequence (O15118 23-1278): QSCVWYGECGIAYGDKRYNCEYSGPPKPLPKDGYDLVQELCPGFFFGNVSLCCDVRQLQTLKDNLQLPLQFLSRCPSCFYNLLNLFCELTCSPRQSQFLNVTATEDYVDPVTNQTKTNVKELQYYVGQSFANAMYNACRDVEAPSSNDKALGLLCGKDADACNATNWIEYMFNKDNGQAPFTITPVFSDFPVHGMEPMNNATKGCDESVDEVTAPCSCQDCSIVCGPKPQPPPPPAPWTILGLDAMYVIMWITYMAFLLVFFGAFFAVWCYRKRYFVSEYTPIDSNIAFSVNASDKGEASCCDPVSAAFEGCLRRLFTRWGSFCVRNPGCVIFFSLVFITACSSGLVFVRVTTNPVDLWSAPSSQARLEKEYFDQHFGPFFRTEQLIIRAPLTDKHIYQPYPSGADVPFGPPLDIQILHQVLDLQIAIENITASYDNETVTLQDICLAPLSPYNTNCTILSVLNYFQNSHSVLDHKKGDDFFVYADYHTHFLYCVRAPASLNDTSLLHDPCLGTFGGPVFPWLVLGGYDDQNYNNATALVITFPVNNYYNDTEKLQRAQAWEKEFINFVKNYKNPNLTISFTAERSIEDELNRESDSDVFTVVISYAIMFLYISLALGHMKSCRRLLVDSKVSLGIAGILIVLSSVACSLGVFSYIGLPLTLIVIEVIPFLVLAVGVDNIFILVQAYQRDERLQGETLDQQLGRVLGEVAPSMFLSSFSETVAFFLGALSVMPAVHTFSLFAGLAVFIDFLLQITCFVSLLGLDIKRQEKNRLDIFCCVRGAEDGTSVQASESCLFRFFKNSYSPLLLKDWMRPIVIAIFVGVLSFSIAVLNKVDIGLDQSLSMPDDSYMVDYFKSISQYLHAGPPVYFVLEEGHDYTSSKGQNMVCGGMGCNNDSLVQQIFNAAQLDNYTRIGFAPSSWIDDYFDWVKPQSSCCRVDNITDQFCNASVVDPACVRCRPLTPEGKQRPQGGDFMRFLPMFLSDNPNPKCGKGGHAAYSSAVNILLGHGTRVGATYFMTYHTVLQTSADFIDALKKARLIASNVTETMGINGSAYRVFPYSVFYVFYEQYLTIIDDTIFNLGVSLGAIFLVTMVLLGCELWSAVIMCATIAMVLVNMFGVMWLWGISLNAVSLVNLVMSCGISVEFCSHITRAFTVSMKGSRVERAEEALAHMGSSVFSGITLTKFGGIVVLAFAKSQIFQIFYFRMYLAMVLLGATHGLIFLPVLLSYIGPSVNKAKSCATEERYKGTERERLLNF

[6] = test system: H1N1; assay: In vivo H1N1 infection mouse model; set-up: species or system C57/BL6J mice; conditions: mice
[7] = test system: NPC1/STING axis; assay: Ifit1 and Ifit2 mRNA in sgRNA-EV, sgRNA Npc1 and Flag-NPC1 cells stimulated with DMXAA and Tet; format: cell-based, mouse; conditions: sgRNA-EV vs NPC1-deficient vs Flag-NPC1 cells, DMXAA
Method: Figure 5. The dual functions of Tet to resist viral entry and activate antiviral immunity through the NPC1/STING axis. (a, b) Confocal analysis of Bio-Tet with CD63 (a) or NPC1 (b) in A549 cells, scale bar: 10 μm. (c) Binding affinity analysis of NPC1 with itraconazole, U18666A, or Tet was determined by SPR. (d, e) CETSA (d) and DARTS (e) analysis of NPC1 with Tet in HepG2 cells. (f) Streptavidin-covered beads with biotin, Bio-Tet, Bio-Tet + Tet were incubated with cell lysates. As indicated, the levels of NPC1 protein in bound proteins (IP) and total proteins (Input) were determined using immunoblotting. (g) Viral mRNA expression in siNPC1-transfected cells treated with Tet. (h) Viral mRNA expression in sgRNA-EV, sgRNA Npc1, and sgRNA Npc1 cells transfected with Flag-NPC1 treated with Tet. (i) Ifit1 and Ifit2 mRNA expression in sgRNA-EV, sgRNA Npc1, and sgRNA Npc1 cells transfected with Flag-NPC1 stimulated with DMXAA and Tet. (j) Schematic of LysoIP-DEG. (k) Immunoblotting analysis of the indicated proteins in LysoIP-DEG in Tet-treated HepG2 cells. (l) Schematic model of NPC1/STING axis-mediated viral inhibition by Tet. The schematic diagram (j) and model (l) were created by Figdraw. For a, b, g, h, i, n = 3 independent experiments. All data are presented as mean ± SD. P values were calculated using one-way ANOVA (g, h, i). NS, not significant. […]

[8] = test system: EMCV; format: cell-based, encephalomyocarditis virus (EMCV)
[9] = test system: HSV-1; assay: microbe, parasite or virus in culture; format: cell-based, herpes simplex virus 1 (HSV-1); conditions: Human alphaherpesvirus 1, L929
[10] = test system: sgRNA-Npc1 cells; format: cell-based, mouse
[11] = target: T1, NPC1; assay: Bio-Tet streptavidin pull-down from cell lysates; format: binding
[12] = H1N1, intranasal administration

Q: Which VSV attachment [1] does the source give for COc1ccc2cc1Oc1ccc(cc1)C[C@H]1c3cc(c(OC)cc3CCN1C)Oc1c(OC)c(OC)cc3c1[C@H](C2)N(C)CC3 [Tet, tetrandrine] here?
A: Its VSV attachment is “without affecting virus attachment”.

Q: And the “VSV infection during entry or post-entry stages” value [1]?
A: Its value is “inhibited”.

Q: What about the “VSV-eGFP entry into lysosomes” value [1] of the same molecule?
A: The value was “blocked”.

Q: What about the systemic clearance [2] of the same molecule?
A: Its systemic clearance is “low”.

Q: What about the volume of distribution [2] of the same molecule?
A: Its volume of distribution is “high”.

Q: What about the H1N1 infection [3] of the same molecule?
A: The H1N1 infection was “effectively suppressed”.

Q: What about the intracellular cholesterol levels [4] of the same molecule?
A: The intracellular cholesterol levels was “higher intracellular cholesterol levels”.

Q: And the Kd [5]?
A: Its Kd is 22.2 µM.

Q: And the “NP protein expression in lung tissue” value ([6]; H1N1)?
A: The value was “inhibited”.

Q: And the “alveolar damage and inflammatory infiltrations in lung tissues (H&E)” value ([6]; H1N1)?
A: Its value is “significantly alleviated”.

Q: And the body weight recovery [6, 12]?
A: Its body weight recovery is “expedited body weight recovery”.

Q: And the survival rates [6, 12]?
A: Its survival rates is “improved survival rates”.

Q: And the “Ifit1 and Ifit2 expression” value [7]?
A: The value was “observed in sgRNA-EV cells, but this effect was abolished in NPC1-deficient cells and restored in sgRNA-Npc1 cells transfected with Flag-NPC1”.

Q: What about the EMCV infection [8] of the same molecule?
A: Its EMCV infection is “effectively suppressed”.

Q: What about the EC50 [9] of the same molecule?
A: Its EC50 is 0.132 µM.

Q: And the antiviral effects [10]?
A: Its antiviral effects is “attenuated but restored with Flag-tagged NPC1 reintroduction”.

Q: And the “competition of Bio-Tet/NPC1 interaction” value [11]?
A: The value was “competitively inhibited”.

— paper PMC12416277, “Phytochemical alkaloids orchestrate immunometabolism against viral infections” (National Science Review, 2025)
